According to PubChem BioAssay AID248 (DTP/NCI, 2004):
Several values for one entry are separate records, joined by “and”; a condition that tells them apart may be missing. Equal values may be shown once. Toxic doses and inconclusive results are not listed. Rule as the data show it: active = T/C of 150% or more; inactive = T/C below 125%.

Tested on: L1210 leukemia ip in BDF1 mice, survival T/C
Assay: NCI In Vivo Anticancer Drug Screen. Data for tumor model L1210 Leukemia (intraperitoneal) in B6D2F1 (BDF1) mice
Conditions: endpoint: mean survival time, higher = longer survival
Summary of the method: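 Antitumor effect is assessed in tumor-bearing animals. Survival in the compound arm is compared with a vehicle-dosed control arm and expressed as their quotient.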

[1] = dose: 6.25 mg/kg/injection, schedule: Q01DX001 (ip), vehicle: saline
[2] = dose: 12.5 mg/kg/injection, schedule: Q01DX001 (ip), vehicle: saline
[3] = dose: 25.0 mg/kg/injection, schedule: Q01DX001 (ip), vehicle: saline
[4] = dose: 50.0 mg/kg/injection, schedule: Q01DX001 (ip), vehicle: saline
[5] = dose: 100.0 mg/kg/injection, schedule: Q01DX001 (ip), vehicle: saline
[6] = dose: 100.0 mg/kg/injection, schedule: Q01DX009 (ip), vehicle: Klucel (hydroxypropylcellulose) (HPC)
[7] = dose: 200.0 mg/kg/injection, schedule: Q01DX001 (ip), vehicle: saline
[8] = dose: 200.0 mg/kg/injection, schedule: Q01DX009 (ip), vehicle: Klucel (hydroxypropylcellulose) (HPC)
[9] = dose: 400.0 mg/kg/injection, schedule: Q01DX009 (ip), vehicle: Klucel (hydroxypropylcellulose) (HPC)
[10] = dose: 50.0 mg/kg/injection, schedule: Q01DX009 (ip), vehicle: Klucel (hydroxypropylcellulose) (HPC)
[11] = dose: 100.0 mg/kg/injection, schedule: Q04DX003 (ip), vehicle: Klucel (hydroxypropylcellulose) (HPC)
[12] = dose: 200.0 mg/kg/injection, schedule: Q04DX003 (ip), vehicle: Klucel (hydroxypropylcellulose) (HPC)
[13] = dose: 400.0 mg/kg/injection, schedule: Q04DX003 (ip), vehicle: Klucel (hydroxypropylcellulose) (HPC)

Measured: T/C

O=C1C(=O)c2ccccc2C(O)=C1CC=C(Cl)Cl
inactive: dose: 6.2 mg/kg/injection, schedule: Q01DX009 (ip), vehicle: water 94 % of control | [1] 97 % of control | [2] 106 % of control | dose: 12.5 mg/kg/injection, schedule: Q01DX001 (oral), vehicle: saline 97 % of control | dose: 12.5 mg/kg/injection, schedule: Q01DX009 (ip), vehicle: water 100 % of control and 96 % of control | dose: 12.5 mg/kg/injection, schedule: Q03HX024 (ip), vehicle: water 89 % of control | dose: 12.5 mg/kg/injection, schedule: Q04DX003 (ip), vehicle: water 94 % of control | dose: 12.5 mg/kg/injection, schedule: Q08DX002 (ip), vehicle: water 98 % of control | [3] 104 % of control | dose: 25.0 mg/kg/injection, schedule: Q01DX001 (oral), vehicle: saline 104 % of control | dose: 25.0 mg/kg/injection, schedule: Q01DX009 (ip), vehicle: water 102 % of control and 96 % of control | dose: 25.0 mg/kg/injection, schedule: Q03HX016 (ip), vehicle: water 89 % of control | dose: 25.0 mg/kg/injection, schedule: Q03HX024 (ip), vehicle: water 90 % of control | dose: 25.0 mg/kg/injection, schedule: Q04DX003 (ip), vehicle: water 95 % of control | dose: 25.0 mg/kg/injection, schedule: Q08DX002 (ip), vehicle: water 95 % of control | dose: 25.0 mg/kg/injection, schedule: Q## X008 (ip), vehicle: water 91 % of control | [4] 106 % of control | dose: 50.0 mg/kg/injection, schedule: Q01DX001 (ip), vehicle: water 102 % of control | dose: 50.0 mg/kg/injection, schedule: Q01DX001 (oral), vehicle: saline 98 % of control | dose: 50.0 mg/kg/injection, schedule: Q01DX009 (ip), vehicle: water 113 % of control and 100 % of control | dose: 50.0 mg/kg/injection, schedule: Q03HX016 (ip), vehicle: water 91 % of control | dose: 50.0 mg/kg/injection, schedule: Q03HX024 (ip), vehicle: water 96 % of control | dose: 50.0 mg/kg/injection, schedule: Q04DX003 (ip), vehicle: water 97 % of control | dose: 50.0 mg/kg/injection, schedule: Q08DX002 (ip), vehicle: water 92 % of control | dose: 50.0 mg/kg/injection, schedule: Q## X008 (ip), vehicle: water 88 % of control | dose: 75.0 mg/kg/injection, schedule: Q03HX024 (ip), vehicle: water 90 % of control | dose: 75.0 mg/kg/injection, schedule: Q04DX003 (ip), vehicle: water 95 % of control | dose: 100.0 mg/kg/injection, schedule: Q01DX001 (oral), vehicle: saline 97 % of control and 106 % of control | dose: 100.0 mg/kg/injection, schedule: Q03HX016 (ip), vehicle: water 88 % of control | dose: 100.0 mg/kg/injection, schedule: Q03HX024 (ip), vehicle: water 92 % of control | dose: 100.0 mg/kg/injection, schedule: Q08DX002 (ip), vehicle: water 92 % of control | dose: 100.0 mg/kg/injection, schedule: Q## X008 (ip), vehicle: water 92 % of control | dose: 200.0 mg/kg/injection, schedule: Q03HX016 (ip), vehicle: water 90 % of control | dose: 200.0 mg/kg/injection, schedule: Q## X008 (ip), vehicle: water 94 % of control

C[N+](C)(CCC#N)Cc1ccc(C[N+](C)(C)CCC#N)cc1
inactive: dose: 5.0 mg/kg/injection, schedule: Q01DX001 (ip), vehicle: saline 90 % of control | dose: 10.0 mg/kg/injection, schedule: Q01DX001 (ip), vehicle: saline 95 % of control | dose: 20.0 mg/kg/injection, schedule: Q01DX001 (ip), vehicle: saline 95 % of control

O=C1OI(Cl)c2ccccc21
inactive: dose: 100.0 mg/kg/injection, schedule: Q04DX002 (ip), vehicle: Klucel (hydroxypropylcellulose) (HPC) 88 % of control | dose: 200.0 mg/kg/injection, schedule: Q04DX002 (ip), vehicle: Klucel (hydroxypropylcellulose) (HPC) 120 % of control

N#Cc1cn(C2OC(CO)C(O)C2O)c2nc(Cl)nc(N)c12 (stereo unspecified)
inactive: dose: 7.5 mg/kg/injection, schedule: Q01DX005 (ip), vehicle: saline 114 % of control | dose: 12.5 mg/kg/injection, schedule: Q01DX005 (ip), vehicle: saline 119 % of control | dose: 12.5 mg/kg/injection, schedule: Q01DX009 (ip), vehicle: saline 117 % of control | dose: 21.0 mg/kg/injection, schedule: Q01DX005 (ip), vehicle: saline 108 % of control | dose: 25.0 mg/kg/injection, schedule: Q01DX005 (ip), vehicle: saline 118 % of control | dose: 25.0 mg/kg/injection, schedule: Q01DX009 (ip), vehicle: saline 98 % of control

Cc1cc(=O)[nH]cn1
inactive: dose: 100.0 mg/kg/injection, schedule: Q04DX003 (ip), vehicle: saline 100 % of control | dose: 200.0 mg/kg/injection, schedule: Q04DX003 (ip), vehicle: saline 112 % of control | dose: 400.0 mg/kg/injection, schedule: Q04DX003 (ip), vehicle: saline 94 % of control

CCCCCCCCCCCCNC(=O)C[n+]1cccc(C(=O)N(C)C)c1
inactive: dose: 5.0 mg/kg/injection, schedule: Q04DX003 (ip), vehicle: saline 93 % of control | dose: 10.0 mg/kg/injection, schedule: Q04DX003 (ip), vehicle: saline 96 % of control | dose: 20.0 mg/kg/injection, schedule: Q04DX003 (ip), vehicle: saline 93 % of control

O=c1[nH]c2ncccc2c(=O)n1O
inactive: [4] 96 % of control | [5] 100 % of control | [6] 96 % of control | [7] 96 % of control | [8] 98 % of control | [9] 94 % of control

COc1cc(C(=O)NNC(=O)C(=O)NNC(=O)c2cc(OC)c(OC)c(OC)c2)cc(OC)c1OC
inactive: dose: 6.25 mg/kg/injection, schedule: Q01DX009 (ip), vehicle: Klucel (hydroxypropylcellulose) (HPC) 95 % of control | dose: 12.5 mg/kg/injection, schedule: Q01DX009 (ip), vehicle: Klucel (hydroxypropylcellulose) (HPC) 96 % of control and 101 % of control | dose: 25.0 mg/kg/injection, schedule: Q01DX009 (ip), vehicle: Klucel (hydroxypropylcellulose) (HPC) 102 % of control | [10] 92 % of control and 98 % of control and 101 % of control | [6] 86 % of control

CCOC(=O)c1cccc(N(CCOS(C)(=O)=O)CCOS(C)(=O)=O)c1
inactive: dose: 16.0 mg/kg/injection, schedule: Q01DX015 (ip), vehicle: saline 110 % of control | dose: 32.0 mg/kg/injection, schedule: Q01DX015 (ip), vehicle: saline 118 % of control | dose: 64.0 mg/kg/injection, schedule: Q01DX015 (ip), vehicle: saline 111 % of control

O=C(c1ccccc1)C1CCCS1(=O)=O (stereo unspecified)
inactive: [11] 100 % of control | [8] 98 % of control | [12] 96 % of control | [9] 97 % of control | [13] 100 % of control

O=C(Nc1ccc(CCC2=NCCCN2)cc1)c1ccc(C(=O)Nc2ccc(CCC3=NCCCN3)cc2)cc1
inactive: dose: 60.0 mg/kg/injection, schedule: Q01DX Z (ip), vehicle: saline 118 % of control | dose: 120.0 mg/kg/injection, schedule: Q01DX Z (ip), vehicle: saline 110 % of control | dose: 240.0 mg/kg/injection, schedule: Q01DX Z (ip), vehicle: saline 112 % of control

CC(C)C1=CC(=O)OC1C(O)C(C)C1CCC2C3CC=C4CC(O)CCC4(C)C3CCC12C (stereo unspecified)
inactive: [11] 102 % of control | [12] 96 % of control | [13] 94 % of control

CSc1nnc2scnn12
inactive: dose: 50.0 mg/kg/injection, schedule: Q01DX001 (ip), vehicle: carboxymethylcellulose (CMC) 104 % of control | dose: 100.0 mg/kg/injection, schedule: Q01DX001 (ip), vehicle: carboxymethylcellulose (CMC) 104 % of control | dose: 200.0 mg/kg/injection, schedule: Q01DX001 (ip), vehicle: carboxymethylcellulose (CMC) 101 % of control

Cc1ccc(N=NN(C)N=Nc2ccc(C)cc2)cc1
inactive: [4] 98 % of control | [5] 95 % of control | [7] 95 % of control | dose: 400.0 mg/kg/injection, schedule: Q01DX001 (ip), vehicle: saline 93 % of control

O=S(=O)(O)c1ccc(-c2ccccc2)cc1
inactive: [10] 106 % of control | [6] 94 % of control | [11] 89 % of control | [12] 94 % of control

CC1(C)N=C(N)N=C(N)N1c1cccc(CNc2ccccc2)c1
inactive: dose: 3.12 mg/kg/injection, schedule: Q01DX001 (ip), vehicle: saline 95 % of control | [1] 103 % of control | [2] 98 % of control | [3] 93 % of control
